The data set is described as follows: clinical. Conditions: human, in vivo.
`CNS(=O)(=O)CCc1ccc2[nH]cc(C3CCN(C)CC3)c2c1` had a CL renal of 3.1 mL/min/kg.

Turning to `CC(C)NCC(O)COc1ccc(COCCOC(C)C)cc1` (centres undefined) [BISOPROLOL], the CL renal was determined as 2.28 mL/min/kg.

Turning to `CC(C)NCC(O)COc1cccc2ccccc12` (centres undefined) [PROPRANOLOL], the CL renal was 1.2 mL/min/kg.

Compound `COc1ccc2c3c1O[C@H]1C(=O)CC[C@@]4(O)[C@@H](C2)N(C)CC[C@]314` [OXYCODONE] came in with a CL renal of 1.1 mL/min/kg.

As for `Nc1ccn(C[C@@H](CO)OCP(=O)(O)O)c(=O)n1.O.O` [CIDOFOVIR], the CL renal was determined as 2.25 mL/min/kg.

With `c1ccc(C2(c3ccccc3)CC2C2=NCCN2)cc1` (centres undefined) [CIFENLINE], the CL renal was found to be 4.2 mL/min/kg.

Consider `O=c1[nH]cc(F)c(=O)[nH]1` [FLUOROURACIL], for which the CL renal came to 1.1 mL/min/kg.

In the case of `CCCc1nc2c(C)cc(-c3nc4ccccc4n3C)cc2n1Cc1ccc(-c2ccccc2C(=O)O)cc1`, the CL renal was determined as 0.08 mL/min/kg.

`COc1cc(OC)c(C(=O)CCCN2CCCC2)c(OC)c1` [BUFLOMEDIL] gave a CL renal of 1.3 mL/min/kg.

As to `CC(C)NCC(O)COc1ccc(CCOCC2CC2)cc1` (centres undefined) [BETAXOLOL], the CL renal is 0.7 mL/min/kg.

With `CO[C@H]1/C=C/O[C@@]2(C)Oc3c(C)c(O)c4c(c3C2=O)C2=NC3(CCN(CC(C)C)CC3)NC2=C(NC(=O)/C(C)=C\C=C\[C@H](C)[C@H](O)[C@@H](C)[C@@H](O)[C@@H](C)[C@H](OC(C)=O)[C@@H]1C)C4=O` [RIFABUTIN], the CL renal amounted to 0.4 mL/min/kg.

`N=C(N)c1ccc(CNC(=O)[C@@H]2CCN2C(=O)[C@H](NCC(=O)O)C2CCCCC2)cc1` gave a CL renal of 1.6 mL/min/kg.

`O=C1CN=C(c2ccccn2)c2cc(Br)ccc2N1` [BROMAZEPAM] displayed a CL renal of 0.26 mL/min/kg.

Compound `O=C(O)Cc1ccccc1Nc1c(Cl)cccc1Cl` [DICLOFENAC] showed a CL renal of 0.04 mL/min/kg.

The compound `CCCCC(=O)N(Cc1ccc(-c2ccccc2-c2nnn[nH]2)cc1)[C@H](C(=O)O)C(C)C` registered a CL renal of 0.14 mL/min/kg.

Compound `CNCC[C@@H](Oc1ccccc1C)c1ccccc1` [ATOMOXETINE] came in with a CL renal of 0.28 mL/min/kg.

The compound `CN(C)c1cc(NC(=O)CNC(C)(C)C)c(O)c2c1C[C@H]1C[C@H]3[C@H](N(C)C)C(O)=C(C(N)=O)C(=O)[C@@]3(O)C(O)=C1C2=O` [TIGECYCLINE] registered a CL renal of 0.57 mL/min/kg.

Take `Cn1nnnc1SCC1=C(C(=O)O)N2C(=O)[C@@H](NC(=O)[C@H](O)c3ccccc3)[C@H]2SC1` [CEFAMANDOLE]: the CL renal was found to be 2.7 mL/min/kg.

`CO/N=C(\C(=O)N[C@@H]1C(=O)N2C(C(=O)O)=C(COC(C)=O)CS[C@H]12)c1csc(N)n1` [CEFOTAXIME] registered a CL renal of 1.37 mL/min/kg.

`O=C1c2c(O)ccc(O)c2C(=O)c2c(NCCNCCO)ccc(NCCNCCO)c21` [MITOXANTRONE]: the CL renal was 0.5 mL/min/kg.

In turn, `CN1CCN(C(=O)OC2c3nccnc3C(=O)N2c2ccc(Cl)cn2)CC1` (centres undefined) [ZOPICLONE] registered a CL renal of 0.1 mL/min/kg.

On to `Cc1cccc(Nc2ccncc2S(=O)(=O)NC(=O)NC(C)C)c1` [TORSEMIDE], for which the CL renal turned out to be 0.13 mL/min/kg.

In the case of `CN1C2CCCC1CC(NC(=O)c1nn(C)c3ccccc13)C2` (centres undefined) [GRANISETRON], the CL renal worked out at 1 mL/min/kg.

As for `O=C1Cc2cc(CCN3CCN(c4nsc5ccccc45)CC3)c(Cl)cc2N1` [ZIPRASIDONE], the CL renal was found to be 0.05 mL/min/kg.

`CS(=O)(=O)OCCCCOS(C)(=O)=O` [BUSULFAN] yielded a CL renal of 0.2 mL/min/kg.

In turn, `CC[C@H]1OC(=O)[C@H](C)[C@@H](O[C@H]2C[C@@](C)(OC)[C@@H](O)[C@H](C)O2)[C@H](C)[C@@H](O[C@@H]2O[C@H](C)C[C@H](N(C)C)[C@H]2O)[C@](C)(O)C[C@@H](C)C(=O)[C@H](C)[C@@H](O)[C@]1(C)O` [ERYTHROMYCIN] returned a CL renal of 0.34 mL/min/kg.

On to `CNC(=C[N+](=O)[O-])NCCSCc1csc(CN(C)C)n1` [NIZATIDINE], for which the CL renal turned out to be 7.35 mL/min/kg.

Consider `CN[C@H](CC(C)C)C(=O)N[C@H]1C(=O)N[C@@H](CC(N)=O)C(=O)N[C@H]2C(=O)N[C@H]3C(=O)N[C@H](C(=O)N[C@H](C(=O)O)c4cc(O)cc(O)c4-c4cc3ccc4O)[C@H](O)c3ccc(c(Cl)c3)Oc3cc2cc(c3O[C@@H]2O[C@H](CO)[C@@H](O)[C@H](O)[C@H]2O[C@H]2C[C@](C)(N)[C@H](O)[C@H](C)O2)Oc2ccc(cc2Cl)[C@H]1O` [VANCOMYCIN], for which the CL renal stood at 1.03 mL/min/kg.

Compound `NC[C@H]1O[C@H](O[C@H]2[C@H](O)[C@@H](O[C@H]3O[C@H](CO)[C@@H](O)[C@H](N)[C@H]3O)[C@H](N)C[C@@H]2N)[C@H](N)C[C@@H]1O` [TOBRAMYCIN] showed a CL renal of 1.19 mL/min/kg.

`CC(CN1c2ccccc2Sc2ccccc21)N(C)C` (centres undefined) [PROMETHAZINE] had a CL renal of 0.14 mL/min/kg.

Compound `CO/N=C(\C(=O)N[C@@H]1C(=O)N2C(C(=O)O)=C(CSc3nc(=O)c(=O)[nH]n3C)CS[C@H]12)c1csc(N)n1` [CEFTRIAXONE] showed a CL renal of 0.12 mL/min/kg.

In the case of `Cc1nc2n(c(=O)c1CCN1CCC(c3noc4cc(F)ccc34)CC1)CCCC2` [RISPERIDONE], the CL renal worked out at 0.18 mL/min/kg.

With `C[C@H]1C[C@H]2[C@@H]3CCC4=CC(=O)C=C[C@]4(C)[C@@]3(F)[C@@H](O)C[C@]2(C)[C@@]1(O)C(=O)CO` [BETAMETHASONE], the CL renal came to 0.14 mL/min/kg.

Regarding `CC[C@@]1(O)C(=O)OCc2c1cc1n(c2=O)Cc2cc3c(CN(C)C)c(O)ccc3nc2-1` [TOPOTECAN], the CL renal was determined as 5.2 mL/min/kg.

Consider `CN(C)CCc1c[nH]c2ccc(C[C@H]3COC(=O)N3)cc12` [ZOLMITRIPTAN], for which the CL renal turned out to be 2.2 mL/min/kg.

`O=C1CN=C(c2ccccc2Cl)c2cc([N+](=O)[O-])ccc2N1` [CLONAZEPAM] registered a CL renal of 0.01 mL/min/kg.

In turn, `COc1cc([C@@H]2c3cc4c(cc3[C@@H](O[C@@H]3O[C@@H]5CO[C@@H](c6cccs6)O[C@H]5[C@H](O)[C@H]3O)[C@H]3COC(=O)[C@H]23)OCO4)cc(OC)c1O` [TENIPOSIDE] yielded a CL renal of 0.02 mL/min/kg.

`Sc1ncnc2nc[nH]c12` [MERCAPTOPURINE ANHYDROUS]: the CL renal turned out to be 0.68 mL/min/kg.

`O=C(N[C@H](CO)[C@H](O)c1ccc([N+](=O)[O-])cc1)C(Cl)Cl` [CHLORAMPHENICOL] displayed a CL renal of 0.24 mL/min/kg.

The compound `CC(C)(C)NCC(O)c1cc(O)cc(O)c1` (centres undefined) [TERBUTALINE] displayed a CL renal of 2.2 mL/min/kg.

As for `C[C@@H]1CN(c2c(F)c(N)c3c(=O)c(C(=O)O)cn(C4CC4)c3c2F)C[C@H](C)N1` [SPARFLOXACIN], the CL renal was 0.4 mL/min/kg.

As for `CN(C)CCc1c[nH]c2ccc(CS(=O)(=O)N3CCCC3)cc12` [ALMOTRIPTAN], the CL renal was found to be 5.79 mL/min/kg.

On to `C[C@H](Cn1cnc2c(N)ncnc21)OCP(=O)(O)O` [TENOFOVIR ANHYDROUS], for which the CL renal was determined as 2.7 mL/min/kg.

Regarding `CC(CC(c1ccccc1)c1ccccc1)NC(C)(C)C` (centres undefined) [TERODILINE], the CL renal worked out at 0.14 mL/min/kg.

Consider `CN(C)CCCC1(c2ccc(F)cc2)OCc2cc(C#N)ccc21` (centres undefined) [CITALOPRAM], for which the CL renal stood at 0.45 mL/min/kg.

As to `NCC1(CC(=O)O)CCCCC1` [GABAPENTIN], the CL renal came out at 1.7 mL/min/kg.

Compound `Nc1nc(Cl)nc2c1ncn2[C@H]1C[C@H](O)[C@@H](CO)O1` [CLADRIBINE] yielded a CL renal of 3.92 mL/min/kg.

In the case of `CC1(C)C[C@@H]1C(=O)N/C(=C\CCCCSC[C@H](N)C(=O)O)C(=O)O` [CILASTATIN], the CL renal amounted to 0.41 mL/min/kg.

As for `Cc1nnc2n1-c1ccc(Cl)cc1C(c1ccccc1)=NC2` [ALPRAZOLAM], the CL renal turned out to be 0.15 mL/min/kg.

`CN/C(=N/CCSCc1nc[nH]c1C)NC#N` [CIMETIDINE]: the CL renal is 7.9 mL/min/kg.

The compound `CN(C)Cc1nnc2n1-c1ccc(Cl)cc1C(c1ccccc1)=NC2` [ADINAZOLAM] registered a CL renal of 2.6 mL/min/kg.

As to `CN1CCN(c2c(F)cc3c(=O)c(C(=O)O)cn(CCF)c3c2F)CC1` [FLEROXACIN], the CL renal was determined as 1.49 mL/min/kg.

In turn, `Cc1cccc(C)c1NC(=O)NCCCNC(C)C` displayed a CL renal of 2.3 mL/min/kg.

Compound `CCOC(=O)C1=C(C)NC(C)=C(C(=O)OC)C1c1cccc([N+](=O)[O-])c1` (centres undefined) [NITRENDIPINE] showed a CL renal of 0.25 mL/min/kg.

For the compound `CC[C@H](C)C(=O)O[C@H]1C[C@@H](C)C=C2C=C[C@H](C)[C@H](CC[C@@H]3C[C@@H](O)CC(=O)O3)[C@H]21` [LOVASTATIN], the CL renal was found to be 0.72 mL/min/kg.

For `CCCc1cc(=O)[nH]c(=S)[nH]1` [PROPYLTHIOURACIL], the CL renal was 0.04 mL/min/kg.

For the compound `CC(=O)[C@]1(O)Cc2c(O)c3c(c(O)c2[C@@H](O[C@H]2C[C@H](N)[C@H](O)[C@H](C)O2)C1)C(=O)c1ccccc1C3=O` [IDARUBICIN], the CL renal was found to be 1.8 mL/min/kg.

As for `CCOC(=O)Nc1ccc(NCc2ccc(F)cc2)nc1N` [FLUPIRTINE], the CL renal came out at 0.27 mL/min/kg.

Consider `CC(=O)N[C@H]1[C@H]([C@H](O)[C@H](O)CO)OC(C(=O)O)=C[C@@H]1N=C(N)N` [ZANAMIVIR], for which the CL renal stood at 1.39 mL/min/kg.

Regarding `CC(C)(C)NCC(O)COc1cccc2c1CC(O)C(O)C2` (centres undefined) [NADOLOL], the CL renal amounted to 1.8 mL/min/kg.

For `COc1cc2c3cc1Oc1cc(ccc1O)C[C@@H]1c4c(cc(OC)c(O)c4Oc4ccc(cc4)C[C@@H]3N(C)CC2)CC[N+]1(C)C.[Cl-]`, the CL renal was 2.14 mL/min/kg.

As for `CC1(C)S[C@@H]2[C@H](NC(=O)C(C(=O)O)c3ccccc3)C(=O)N2[C@H]1C(=O)O` (some centres undefined) [CARBENICILLIN], the CL renal was 1.9 mL/min/kg.

With `Nc1nc(O)c2ncn(COC(CO)CO)c2n1` [GANCICLOVIR], the CL renal was determined as 4.14 mL/min/kg.

Compound `O=P(O)(O)C(O)(Cc1cccnc1)P(=O)(O)O` [RISEDRONIC ACID] returned a CL renal of 1.31 mL/min/kg.

For the compound `CCOc1cc(CC(=O)N[C@@H](CC(C)C)c2ccccc2N2CCCCC2)ccc1C(=O)O` [REPAGLINIDE], the CL renal was 0.12 mL/min/kg.

The compound `COC(=O)Nc1nc2ccc(C(=O)c3ccccc3)cc2[nH]1` [MEBENDAZOLE] gave a CL renal of 0.17 mL/min/kg.

The compound `CN1CCC[C@H]1c1cccnc1` [NICOTINE] gave a CL renal of 3 mL/min/kg.

In turn, `COc1ccc(CCNCC(O)COc2cccc(C)c2)cc1OC` (centres undefined) [BEVANTOLOL] came in with a CL renal of 0.06 mL/min/kg.

In turn, `CCC(CC)O[C@@H]1C=C(C(=O)O)C[C@H](N)[C@H]1NC(C)=O` [OSELTAMIVIR CARBOXYLATE] returned a CL renal of 4.46 mL/min/kg.

The compound `CC(C(=O)O)c1ccc(C(=O)c2cccs2)cc1` (centres undefined) [SUPROFEN] showed a CL renal of 0.04 mL/min/kg.

Consider `Cc1cccc(C)c1NC(=O)C(C)N` (centres undefined) [TOCAINIDE], for which the CL renal turned out to be 0.8 mL/min/kg.

`CCOC(=O)C1(c2ccccc2)CCC=CC1N(C)C` (centres undefined) [TILIDINE] registered a CL renal of 0.26 mL/min/kg.

On to `N#Cc1ccc(C(c2ccc(C#N)cc2)n2cncn2)cc1` [LETROZOLE], for which the CL renal was found to be 0.02 mL/min/kg.

In the case of `CCOc1ccc2ccccc2c1C(=O)N[C@@H]1C(=O)N2[C@@H]1SC(C)(C)[C@@H]2C(=O)O` [NAFCILLIN], the CL renal amounted to 1.03 mL/min/kg.

(Values after ChEMBL document CHEMBL1151930, “Physicochemical determinants of human renal clearance” (J Med Chem, 2009).)
